Laboratory results from patent publication US20260273028A1, “PEROXIDASE COMPOSITIONS CONTAINING IMPROVED ENHANCING AGENTS” (FLEN HEALTH PHARMA NV, priority 2022, published 2026).

Assays:
[1] = exemplary values; cited from earlier work
[2] = tested on: Aspergillus niger ATCC®16404™; experiment: MBC determination, broth microdilution with CFU enumeration; type: cell-based; conditions: A. niger
Experimental: (§1) The minimal bactericidal concentration (MBC) is defined as the lowest concentration of an antimicrobial agent that results in a complete killing of the microbial population (determined via standard CFU enumeration techniques) after overnight incubation. This endpoint measurement is used, together with the MIC (see above), to define the microbial susceptibility towards an antimicrobial agent. Here, the antimicrobial agent is a combination of the natural enzymes GOX+LPO.
(§2) To determine the MBC of the described combinations, a classical broth microdilution assay combined with standard CFU enumeration techniques was used to determine the susceptibility of a series of microbes commonly detected in infected wounds, including (a) the Gram-positive bacterium Staphylococcus aureus ATCC® 6538™ (results shown below), (b) the Gram-negative bacterium Pseudomonas aeruginosa ATCC®9027™ (results shown below), (c) the yeast Candida albicans ATCC®10231™ (results shown below), and (d) the fungus Aspergillus niger ATCC®16404™ (results shown below). In brief, the broth microdilution assay was set up as previously described (see 2.1). After incubation, the MBC was determined by investigating the presence of viable microorganisms at the MIC and following higher concentrations (MICx2, MICx4, and so on) using standard CFU enumeration techniques. For each combination evaluated, this test was repeated at least 5 times. The collected data were further analyzed in MS Excel. Mean concentration data (expressed as log CFU/ml) were visualized in a table format in which the MBC was highlighted.

[3] = tested on: Pseudomonas aeruginosa ATCC®9027™; experiment: as above; type: cell-based; conditions: P. aeruginosa
Experimental: as §1, §2

[4] = tested on: Aspergillus niger ATCC®16404™; experiment: MIC determination, broth microdilution, GOX+LPO with potentiator candidate; type: cell-based; conditions: A. niger
Experimental: (§3) The minimum inhibitory concentration (MIC) is defined as the lowest concentration of an antimicrobial agent that results in a complete inhibition of microbial growth (determined via visual evaluation or absorbance measurements) after overnight incubation. This endpoint measurement is used to define the microbial susceptibility towards an antimicrobial agent. Here, the antimicrobial agent is a combination of the natural enzymes GOX+LPO.
(§4) To determine the MIC of the described combinations, a classical broth microdilution assay was used to determine the susceptibility of a series of microbes commonly detected in infected wounds, including (a) the Gram-positive bacterium Staphylococcus aureus ATCC® 6538™ (results shown below), (b) the Gram-negative bacterium Pseudomonas aeruginosa ATCC®9027™ (results shown below), (c) the yeast Candida albicans ATCC®10231™ (results shown below), and (d) the fungus Aspergillus niger ATCC®16404™ (results shown below). In brief, a […] serial dilution of the enzymatic GOX+LPO solution was prepared in a transparent, flat-bottomed 96-well test plate with final concentrations ranging from 0.005 to 0.00000977% (v/v). To each well, a fixed volume of the enzymatic substrate containing 3,3% (w/v) glucose and 0,084% (w/v) potassium iodide, as well as the microbial inoculum with an OD600 of 0.1 was added. In the event the enzyme combination was evaluated in the presence of a potentiator candidate, the latter was added together with the enzymatic substrate in a final concentration ranging from 100 to 0,00125% (v/v). For each combination evaluated, a blank (no addition of microbial inoculum) was included. Positive (inoculum only) and negative (background solution only) were included to evaluate the performance of the test and to select the enzymatic GOX+LPO concentration at which no microbial growth is detected (i.e., absorbance equal to that of the background solution only). Then, the 96-well test plate was incubated for 24 hours at 37° C. (S. aureus, P. aeruginosa and C. albicans) or 25° C. (A. niger). After incubation, the absorbance of each well was measured using a plate spectrophotometer (Spectramax ID3, Molecular Devices). For each combination evaluated, this test was repeated at least 5 times. The collected data were further analyzed in MS Excel. Mean absorbance data were visualized in a table format in which the MIC was highlighted.

[5] = tested on: Staphylococcus aureus ATCC® 6538™; experiment: as above; type: cell-based; conditions: S. aureus
Experimental: as §3, §4

[6] = tested on: Pseudomonas aeruginosa ATCC®9027™; experiment: as above; type: cell-based; conditions: P. aeruginosa
Experimental: as §3, §4

Row | Structure (SMILES) | LogP (octanol/water partition coefficient) [1] | MBC: GOX+LPO enzyme solution needed ([2]; enhancer 1%-0.01%) | increase in MBC compared to reference ([2]; enhancer 1%-0.01%) | MBC: GOX+LPO enzyme solution needed ([3]; enhancer 0,1%) | increase in MBC compared to reference ([3]; enhancer 0,1%) | MBC: GOX+LPO enzyme solution needed ([3]; enhancer 1%) | increase in MBC compared to reference ([3]; enhancer 1%) | MIC: GOX+LPO enzyme solution needed to completely inhibit growth ([4]; enhancer 1%-0.01%) | increase in MIC compared to reference ([4]; enhancer 1%-0.01%) | MIC: GOX+LPO enzyme solution needed to completely inhibit growth ([5]; enhancer 0.01%) | increase in MIC compared to reference or guaiacol solution ([5]; enhancer 0.01%) | MIC: GOX+LPO enzyme solution needed to completely inhibit growth ([6]; enhancer 0,1%) | increase in MIC compared to reference ([6]; enhancer 0,1%) | MIC: GOX+LPO enzyme solution needed to completely inhibit growth ([6]; enhancer 1%) | increase in MIC compared to reference ([6]; enhancer 1%) | MBC: GOX+LPO enzyme solution needed ([3]; enhancer 0.0025-0.00125%) | increase in MBC compared to reference or guaiacol solution ([3]; enhancer 0.0025-0.00125%) | MBC: GOX+LPO enzyme solution needed ([3]; enhancer 0.01-0.005%) | increase in MBC compared to reference or guaiacol solution ([3]; enhancer 0.01-0.005%) | MIC: GOX+LPO enzyme solution needed to completely inhibit growth ([5]; enhancer 0.0025% to 0.00125%) | also measured
1 | C[C@@H](O)[C@H](N)C(=O)O [Threonine, threonine] | LogP = −2.94 | 0.000156 % (v/v) | 2 × | 0.000625 % (v/v) | 2 × | 0.000156 % (v/v) | 8 × | 0.000156 % (v/v) | 2 × | 0.0000391 % (v/v) | 2 × | 0.000625 % (v/v) | 2 × | 0.000156 % (v/v) | 8 × | – | – | – | – | – | MIC: GOX+LPO enzyme solution needed to completely inhibit growth ([5]; enhancer 2%): 0.0000195 % (v/v); increase in MIC compared to reference or guaiacol solution ([5]; enhancer 2%): 4 ×
2 | NC(=O)C[C@H](N)C(=O)O [Asparagine, asparagine] | LogP = −3.82 | – | – | 0.000625 % (v/v) | 2 × | 0.000156 % (v/v) | 8 × | – | – | – | – | 0.000625 % (v/v) | 2 × | 0.000156 % (v/v) | 8 × | – | – | – | – | – | MBC: GOX+LPO enzyme solution needed ([2]; enhancer 1%-0.05%): 0.000156 % (v/v); increase in MBC compared to reference ([2]; enhancer 1%-0.05%): 2 ×; MIC: GOX+LPO enzyme solution needed to completely inhibit growth ([4]; enhancer 1%-0.05%): 0.000156 % (v/v); increase in MIC compared to reference ([4]; enhancer 1%-0.05%): 2 ×; MIC: GOX+LPO enzyme solution needed to completely inhibit growth ([5]; enhancer 0.5% to 0.01%): 0.0000391 % (v/v); increase in MIC compared to reference or guaiacol solution ([5]; enhancer 0.5% to 0.01%): 2 ×
3 | N[C@@H](CO)C(=O)O [Serine, serine] | LogP = −3.07 | 0.000156 % (v/v) | 2 × | – | – | – | – | 0.000156 % (v/v) | 2 × | – | – | – | – | – | – | 0.000625 % (v/v) | 2 × | 0.000625 % (v/v) | 2 × | 0.0000391 % (v/v) | increase in MIC compared to reference or guaiacol solution ([5]; enhancer 0.0025% to 0.00125%): 2 ×; MIC: GOX+LPO enzyme solution needed to completely inhibit growth ([5]; enhancer 0.01% to 0.005%): 0.0000391 % (v/v); increase in MIC compared to reference or guaiacol solution ([5]; enhancer 0.01% to 0.005%): 2 ×; MIC: GOX+LPO enzyme solution needed to completely inhibit growth ([5]; enhancer 10%): ≤ 0.0000977 % (v/v); increase in MIC compared to reference or guaiacol solution ([5]; enhancer 10%): ≥ 6 ×; MIC: GOX+LPO enzyme solution needed to completely inhibit growth ([6]; enhancer 0.0025-0.00125%): 0.000625 % (v/v); increase in MIC compared to reference or guaiacol solution ([6]; enhancer 0.0025-0.00125%): 2 ×; MIC: GOX+LPO enzyme solution needed to completely inhibit growth ([6]; enhancer 0.01-0.005%): 0.000625 % (v/v); increase in MIC compared to reference or guaiacol solution ([6]; enhancer 0.01-0.005%): 2 ×
4 | NC(=O)CC[C@H](N)C(=O)O [Glutamine, glutamine] | LogP = −3.15 | 0.000156 % (v/v) | 2 × | 0.000625 % (v/v) | 2 × | 0.000156 % (v/v) | 8 × | 0.000156 % (v/v) | 2 × | – | – | 0.000625 % (v/v) | 2 × | 0.000156 % (v/v) | 8 × | – | – | – | – | – | MIC: GOX+LPO enzyme solution needed to completely inhibit growth ([5]; enhancer 1% to 0.01%): 0.0000391 % (v/v); increase in MIC compared to reference or guaiacol solution ([5]; enhancer 1% to 0.01%): 2 ×
5 | CC[C@H](C)[C@H](N)C(=O)O [Isoleucine, isoleucine] | LogP = −1.72 | – | – | 0.000625 % (v/v) | 2 × | 0.000156 % (v/v) | 8 × | – | – | – | – | 0.000625 % (v/v) | 2 × | 0.000156 % (v/v) | 8 × | – | – | – | – | 0.0000391 % (v/v) | MBC: GOX+LPO enzyme solution needed ([2]; enhancer 1%-0.005%): 0.000156 % (v/v); increase in MIC compared to reference (MBC section) ([2]; enhancer 1%-0.005%): 2 ×; MIC: GOX+LPO enzyme solution needed to completely inhibit growth ([4]; enhancer 1%-0.005%): 0.000156 % (v/v); increase in MIC compared to reference ([4]; enhancer 1%-0.005%): 2 ×; increase in MIC compared to reference or guaiacol solution ([5]; enhancer 0.0025% to 0.00125%): 2 ×; MIC: GOX+LPO enzyme solution needed to completely inhibit growth ([5]; enhancer 0.5% to 0.005%): 0.0000391 % (v/v); increase in MIC compared to reference or guaiacol solution ([5]; enhancer 0.5% to 0.005%): 2 ×
6 | O=C(O)[C@@H]1CCCN1 [Proline, proline] | LogP = −2.54 | 0.000156 % (v/v) | 2 × | – | – | – | – | 0.000156 % (v/v) | 2 × | 0.0000195 % (v/v) | 4 × | – | – | – | – | 0.000625 % (v/v) | 2 × | 0.000625 % (v/v) | 2 × | – | MIC: GOX+LPO enzyme solution needed to completely inhibit growth ([5]; enhancer 10%): 0.0000391 % (v/v); increase in MIC compared to reference or guaiacol solution ([5]; enhancer 10%): 2 ×; MIC: GOX+LPO enzyme solution needed to completely inhibit growth ([6]; enhancer 0.0025-0.00125%): 0.000625 % (v/v); increase in MIC compared to reference or guaiacol solution ([6]; enhancer 0.0025-0.00125%): 2 ×; MIC: GOX+LPO enzyme solution needed to completely inhibit growth ([6]; enhancer 0.01-0.005%): 0.000625 % (v/v); increase in MIC compared to reference or guaiacol solution ([6]; enhancer 0.01-0.005%): 2 ×
